Results taken from patent US20170217946A1, “AMINO-SUBSTITUTED ISOXAZOLES” (Bayer Pharma Aktiengesellschaft, priority 2014, published 2017).

Biological target: T1, human kinase Mps-1 (Homo sapiens, UniProt P33981)
T1 construct: human full length recombinant Mps-1 kinase; GST (N); purchased Invitrogen, Karslruhe, Germany PV4071
T1 sequence (P33981 1-857): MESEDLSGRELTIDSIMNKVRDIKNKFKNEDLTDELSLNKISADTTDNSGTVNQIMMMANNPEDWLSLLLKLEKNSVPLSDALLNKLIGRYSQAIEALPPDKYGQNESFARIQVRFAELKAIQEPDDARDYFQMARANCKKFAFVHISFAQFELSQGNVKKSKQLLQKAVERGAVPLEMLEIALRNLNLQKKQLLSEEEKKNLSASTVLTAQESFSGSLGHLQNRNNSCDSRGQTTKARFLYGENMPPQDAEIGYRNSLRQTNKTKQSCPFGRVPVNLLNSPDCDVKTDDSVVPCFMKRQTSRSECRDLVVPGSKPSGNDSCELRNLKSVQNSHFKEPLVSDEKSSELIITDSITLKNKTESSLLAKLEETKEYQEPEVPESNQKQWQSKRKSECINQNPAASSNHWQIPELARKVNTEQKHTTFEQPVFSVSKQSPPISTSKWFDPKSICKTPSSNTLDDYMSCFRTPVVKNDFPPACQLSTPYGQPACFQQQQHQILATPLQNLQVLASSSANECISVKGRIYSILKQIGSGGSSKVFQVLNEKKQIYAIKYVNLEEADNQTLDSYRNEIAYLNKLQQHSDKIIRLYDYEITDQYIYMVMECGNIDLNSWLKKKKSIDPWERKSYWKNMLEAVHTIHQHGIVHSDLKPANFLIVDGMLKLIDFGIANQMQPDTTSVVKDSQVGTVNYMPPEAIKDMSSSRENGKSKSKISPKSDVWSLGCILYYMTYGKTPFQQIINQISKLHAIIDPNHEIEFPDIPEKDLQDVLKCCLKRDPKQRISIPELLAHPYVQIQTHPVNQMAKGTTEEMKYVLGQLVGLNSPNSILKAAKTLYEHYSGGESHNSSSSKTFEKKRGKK
Experiment: Mps-1 kinase assay (TR-FRET)
Assay type: biochemical
Details: 10 μM ATP; read-out: Mps1 avg (IC50)
Procedure: The human kinase Mps-1 phosphorylates a biotinylated substrate peptide. Detection of the phosphorylated product is achieved by time-resolved fluorescence resonance energy transfer (TR-FRET) from Europium-labelled anti-phospho-Serine/Threonine antibody as donor to streptavidin labelled with cross-linked allophycocyanin (SA-XLent) as acceptor. Compounds are tested for their inhibition of the kinase activity.
N-terminally GST-tagged human full length recombinant Mps-1 kinase (purchased from Invitrogen, Karslruhe, Germany, cat. no PV4071) was used. […]
The resulting mixture was incubated 1 h at 22° C. to allow the binding of the phosphorylated peptide to the anti-phospho(Ser/Thr)-Europium-antibody. Subsequently the amount of phosphorylated substrate was evaluated by measurement of the resonance energy transfer from the Europium-labelled anti-phospho(Ser/Thr) antibody to the Streptavidin-XLent. Therefore, the fluorescence emissions at 620 nm and 665 nm after excitation at 350 nm was measured in a Viewlux TR-FRET reader (PerkinElmer LAS, Rodgau-Jügesheinn, Germany). The “blank-corrected normalized ratio” (a Viewlux specific readout, similar to the traditional ratio of the emissions at 665 nm and at […], in which blank and Eu-donor crosstalk are subtracted from the 665 nm signal before the ratio is calculated) was taken as the measure for the amount of phosphorylated substrate. […]

IC50: 16 µM
SMILES: Cc1noc(Nc2cnc(C(=O)NC3CCN(CC(F)F)CC3)cn2)c1C(=O)Nc1ccc(F)c(F)c1 [Example 1b, N-[1-(2,2-Difluoroethyl)piperidin-4-yl]-5-({4-[(3,4-difluorophenyl)carbamoyl]-3-methyl-1,2-oxazol-5-yl}amino)pyrazine-2-carboxamide]
